Data set [1] concerns the target T1, Geranylgeranyl pyrophosphate synthase (Homo sapiens) (UniProt O95749).
T1 sequence (whole entry): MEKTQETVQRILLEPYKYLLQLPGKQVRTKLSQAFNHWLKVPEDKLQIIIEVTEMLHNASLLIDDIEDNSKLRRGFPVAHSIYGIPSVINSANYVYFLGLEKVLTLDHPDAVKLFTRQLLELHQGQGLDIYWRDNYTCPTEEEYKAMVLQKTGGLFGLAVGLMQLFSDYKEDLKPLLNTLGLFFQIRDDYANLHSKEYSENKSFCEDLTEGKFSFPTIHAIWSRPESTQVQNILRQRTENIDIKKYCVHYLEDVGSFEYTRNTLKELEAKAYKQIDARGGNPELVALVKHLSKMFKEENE
Description: Inhibition of GGDPS in human RPMI-8226 cells assessed as appearance of unmodified Rap1a band up to 100 uM measured after 48 hrs by immunoblot analysis. The data set is classed as cell-based.

Data set [2] concerns the target T1, Geranylgeranyl pyrophosphate synthase (Homo sapiens). Description: Inhibition of GGDPS in human MG-63 cells assessed as appearance of unmodified Rap1a band at 0.1 to 1 uM measured after 48 hrs by immunoblot analysis. The data set is classed as cell-based. As to conditions: dose 0.1-1 µM.
In data set [3] the target is T2, Geranylgeranyl pyrophosphate synthase (Homo sapiens, UniProt O95749).
T2 sequence (O95749 whole entry): T1 sequence (whole entry)
Kind of data set: Inhibition of recombinant GGDPS (unknown origin) using [14C] IPP and FPP as substrate preincubated for 10 mins followed by substrate addition and measured after 30 mins by scintillation counting method.

Data set [4] concerns the target T1, Geranylgeranyl pyrophosphate synthase (Homo sapiens). Description: Inhibition of GGDPS in human SAOS-2 cells assessed as appearance of unmodified Rap1a band at 0.1 to 1 uM measured after 48 hrs by immunoblot analysis. The data set is classed as cell-based. As to conditions: dose 0.1-1 µM.
Data set [5] shares this target. Kind of data set: Inhibition of GGDPS in human 143B cells assessed as appearance of unmodified Rap1a band at 0.1 to 1 uM measured after 48 hrs by immunoblot analysis. The data set is classed as cell-based. As to conditions: dose 0.1-1 µM.
Data set [6] shares this target. Kind of data set: Inhibition of GGDPS in human RPMI-8226 cells assessed as increase in intracellular lambda chain level up to 100 uM after 48 hrs by ELISA. The data set is classed as cell-based.
Data set [7] concerns RPMI-8226. Kind of data set: Cytotoxicity against human RPMI-8226 cells assessed as reduction in cell viability up to 10 uM measured after 48 hrs by MTT assay. The data set is classed as functional, cell-based.
For data set [8], the system named is 143B. Description: Cytotoxicity against human 143B cells assessed as reduction in cell viability up to 10 uM measured after 48 hrs by MTT assay. The data set is classed as functional, cell-based.
Data set [9] concerns the target T1, Geranylgeranyl pyrophosphate synthase (Homo sapiens). Description: Inhibition of GGDPS in human 143B cells assessed as lowest effective concentration required to show unmodified Rap1a band measured after 48 hrs by immunoblot analysis. The data set is classed as cell-based.
Data set [10] shares this target. Description: Inhibition of GGDPS in human RPMI-8226 cells assessed as lowest effective concentration required to show unmodified Rap1a band measured after 48 hrs by immunoblot analysis. The data set is classed as cell-based.
The target is the same in data set [11]. Description: Inhibition of GGDPS in human SAOS-2 cells assessed as lowest effective concentration required to show unmodified Rap1a band measured after 48 hrs by immunoblot analysis. The data set is classed as cell-based.
For data set [12] the target is unchanged. Description: Inhibition of GGDPS in human MG-63 cells assessed as lowest effective concentration required to show unmodified Rap1a band measured after 48 hrs by immunoblot analysis. The data set is classed as cell-based.
Data set [13] has the same target. Description: Inhibition of GGDPS in human MM1.S cells assessed as lowest effective concentration required to show unmodified Rap1a band measured after 48 hrs by immunoblot analysis. The data set is classed as cell-based.
Data set [14] has the same target. Description: Inhibition of GGDPS in human RPMI-8226 cells assessed as lowest effective concentration required for increase in intracellular lambda chain level after 48 hrs by ELISA. The data set is classed as cell-based.
Data set [15] in a line: Apparent permeability of the compound by PAMPA. The data set is classed as ADME.
For data set [16], the target named is T1, Geranylgeranyl pyrophosphate synthase (Homo sapiens). Kind of data set: Inhibition of GGDPS in human MM1.S cells assessed as appearance of unmodified Rap1a band at 1 to 100 uM measured after 48 hrs by immunoblot analysis. The data set is classed as cell-based. As to conditions: dose 1-100 µM.
For data set [17] the target is unchanged. Kind of data set: Inhibition of GGDPS in human MM1.S cells assessed as appearance of unmodified Rap1a band measured after 48 hrs by immunoblot analysis. The data set is classed as cell-based.

Calls of active or inactive are those of the source. The rule behind the calls is not given here. Where only a bound is given, the exact number is not on record here.

The results in this text go back to ChEMBL document CHEMBL6109095, “Impact of fixed phosphorus position on activity of triazole bisphosphonates as geranylgeranyl diphosphate synthase inhibitors” (Bioorg Med Chem, 2025).

For `CC(C)=CCC/C(C)=C/CCn1cc(C2OC2(P(=O)(O)O)P(=O)(O)O)nn1` (stereo unspecified), the inhibition entry in data set [1] and in [6] was “inactive” in each case. The inhibition result in data set [2], in data set [4] and in data set [5] was “Active” each time. Moreover, the IC50 in [3] worked out at 450 nM.

`CC(C)=CCC/C(C)=C/CCn1cc(C=C(P(=O)(O)O)P(=O)(O)O)nn1`: the outcome in data set [7] and in [8] was Active. For the same compound, the LED in [9] came out at 0.25 µM; in data set [10], 0.25 µM; in data set [11], 0.01 µM; in data set [12], 0.25 µM; in data set [13], 0.25 µM; in data set [14], 0.25 µM. Moreover, the IC50 in data set [3] is 400 nM.

With `CC(C)=CCC/C(C)=C\CCn1cc(C=C(P(=O)(O)O)P(=O)(O)O)nn1`, the result in data set [7] and in data set [8] was Active. In addition, the LED in data set [9] stood at 0.25 µM; in [10], 0.25 µM; in data set [11] it was 0.01 µM; in [12], 0.25 µM; in data set [13], 0.25 µM; in data set [14], 0.25 µM. For the same compound, the IC50 in [3] came out at 370 nM.

Regarding `CC(C)=CCCC(C)=CCn1cc(C=C(P(=O)(O)O)P(=O)(O)O)nn1`, the LED in [10] and in data set [14] was 0.25 µM each time.

Regarding `CC(C)=CCCC(C)=CCn1cc(C2OC2(P(=O)(O)O)P(=O)(O)O)nn1` (stereo unspecified), the LED in data set [9] came to 5 µM; in [10], 5 µM; in [11], 0.5 µM; in data set [12], 5 µM; in data set [13], 5 µM; in data set [14], 5 µM. The IC50 in data set [3] was determined as 11000 nM.

With `CC(C)=CCC/C(C)=C/CCn1cc(CC(P(=O)(O)O)P(=O)(O)O)nn1`, the LED in [10] and in data set [14] was 0.09 µM throughout.

As to `CC(C)=CCCC(C)=CCn1cc(CC(P(=O)(O)O)P(=O)(O)O)nn1`, the LED in [10] and in data set [14] was 0.5 µM in each case.

Turning to `CC(C)=CCC/C(C)=C/CCn1cc(C2CC2(P(=O)([O-])[O-])P(=O)([O-])[O-])nn1.[Na+].[Na+].[Na+].[Na+]` (stereo unspecified), in [15], the Papp is 0.061 10^-6 cm/s. The LED in data set [9] stood at 5 µM; in data set [10], 100 µM; in [11], 5 µM; in data set [12] it was 5 µM; in data set [14], 100 µM. In addition, in data set [16], the inhibition result was “Not active; No Appreciable Activity Observed”. For the same compound, the IC50 in [3] was found to be 890 nM.

Turning to `CC(C)=CCCC(C)CCCn1cc(C2CC2(P(=O)(O)O)P(=O)(O)O)nn1` (stereo unspecified), the inhibition entry in data set [1] and in data set [6] was “inactive” in each case. Further, the half-maximal inhibitory concentration (IC50) in [3] is > 100000 nM.

Turning to `CC(C)=CCCC(C)=CCn1cc(C2CC2(P(=O)(O)O)P(=O)(O)O)nn1` (stereo unspecified), the LED in [10] and in data set [14] was 0.5 µM throughout.

As to `CC(C)=CCC/C(C)=C\CCn1cc(C2CC2(P(=O)([O-])[O-])P(=O)([O-])[O-])nn1.[Na+].[Na+].[Na+].[Na+]` (stereo unspecified), the Papp in [15] was 0.283 10^-6 cm/s. Moreover, the LED in data set [9] was 50 µM; in [10] it was 100 µM; in data set [11], 50 µM; in [12] it was 50 µM; in data set [14], 100 µM. Moreover, the inhibition entry in data set [16] was “Not active; No Appreciable Activity Observed”. Further, in [3], the concentration for half-maximal inhibition (IC50) worked out at 2870 nM.

Take `CC(C)=CCCC(C)CCCn1cc(C=C(P(=O)(O)O)P(=O)(O)O)nn1` (stereo unspecified): the LED in [10] and in [14] was 50 µM each time. In data set [3], the IC50 was > 100000 nM.

On to `CC(C)=CCCC(C)=CCCn1cc(CC(P(=O)(O)O)P(=O)(O)O)nn1`, for which the LED in data set [10] and in [14] was 0.03 µM in each case.

In the case of `CC(C)=CCC/C(C)=C\CCn1cc(CC(C)(P(=O)(O)O)P(=O)(O)O)nn1`, the LED in [10] worked out at 0.025 µM.

As for `CC(C)=CCC/C(C)=C/CCn1cc(CC(C)(P(=O)(O)O)P(=O)(O)O)nn1`, the LED in data set [10] and in data set [14] was 0.02 µM in each case.

With `CC(C)=CCC/C(C)=C/CCn1cc(C2CC2(P(=O)(OCOC(=O)C(C)(C)C)OCOC(=O)C(C)(C)C)P(=O)(OCOC(=O)C(C)(C)C)OCOC(=O)C(C)(C)C)nn1` (stereo unspecified), the LED in [9], in data set [10], in data set [11], in data set [12] and in data set [14] was 5 µM throughout. Besides, the inhibition entry in [17] is “Not active; No Evidence Of Disruption Of Geranylgeranylation Was Observed”.

Turning to `CC(C)=CCCC(C)CCCn1cc(CC(P(=O)(O)O)P(=O)(O)O)nn1` (stereo unspecified), the LED in data set [10] and in data set [14] was 10 µM in each case. Further, the IC50 in data set [3] stood at 25100 nM.

`CC(C)=CCC/C(C)=C\CCn1cc(C2OC2(P(=O)(O)O)P(=O)(O)O)nn1` (stereo unspecified): the LED in data set [10] and in data set [14] was 2.5 µM throughout. The inhibition result in data set [2], in data set [4] and in data set [5] was “Active” in each case. Moreover, the IC50 in data set [3] amounted to 2360 nM.
